Assay results published in patent EP2084165B1, “POSITIVELY CHARGED WATER-SOLUBLE PRODRUGS OF OXICAMS AND RELATED COMPOUNDS WITH VERY HIGH SKIN PENETRATION RATE” (Techfields Biochem Co. Ltd, priority 2006, dated 2008).
Counter-ions that a name gives are not always drawn. Like-named read-outs stand apart in the source and are kept apart here.

How the values were obtained:
Solubility in water = settings: for solubility: water, solubility in water
[1] = Acute toxicity, LD50 orally in mice; type: in vivo; settings: mouse, in vivo
Text: (§1) The acute toxicity of the prodrugs was investigated. […].

in vivo = settings: mouse, topical or ocular
Method: The donor consisted of a 20% solution of these compounds in 1 mL of isopropanol applied to a 10 cm^2 on the backs of the hairless mice. Plasma levels of drugs were determined by a specific high-performance liquid chromatography method.

[2] = prodrug versus the drug itself (testosterone); cited from earlier work
mice [3] = assay: Analgesic activity: acetic acid writhing test in mice; type: in vivo; settings: for No. of Writhings: 50 mg/kg transdermally 60 minutes before acetic acid solution intraperitoneally, control group 35.0; for Rate of Inhibition (%): 50 mg/kg transdermally 60 minutes before acetic acid solution, based on the control group
Method: The number of writhings that occurred when mice were administered an acetic acid solution intraperitoneally were counted, and the rate of inhibition based on the control group was calculated. […] The group A is the control group.

Rats = assay: Antipyretic activity: rats given sterilized E. coli suspension as pyrogen; type: in vivo; settings: 25 mg/kg transdermally 2 hours after E. coli pyrogen, in °C (unit assumed)
Method: Antipyretic activity: Rats received a sterilized E. coli suspension as a pyrogen. […] The body temperature of the rats was taken at 90 min. intervals before and after the administration of the test compounds.

mice [4] = assay: Acute toxicity, LD50 orally in mice; type: in vivo; settings: oral, mice
Text: as §1

[5] = oral, mice, read-out: LD50 orally in mice

CN(C)CCCC(=O)OC1=C(C(=O)Nc2ccccn2)N(C)S(=O)(=O)c2ccsc21
solubility (Solubility in water): > 300 mg/mL
LD50 ([1]; po): 500 mg/kg
Cmax (in vivo): ~500 µg/mL
Tmax (in vivo): ~50 min

CN(C)CCCC(=O)O[C@H]1CC[C@H]2[C@@H]3CCC4=CC(=O)CC[C@]4(C)[C@H]3CC[C@]12C.Cl [TSBH, testosteronyl-4-dimethylaminobutyrate.HCl]
diffuses through human skin faster than does the drug itself [2]: ~ 60 times

CN(C)CCCC(=O)OC1=C(C(=O)Nc2ccccn2)N(C)S(=O)(=O)c2ccccc21 [B, 4-N,N-dimethylaminobutyryloxy-2-methyl-N-2-pyridinyl-2H,1,2-benzothiazine-3-carb oxamide 1,1-dioxide.HCl]
No. of Writhings (mice [3]): 15.6
Rate of Inhibition (%) (mice [3]): 55%
solubility in water (Solubility in water): 250 mg/mL
body temperature of the rats, t = 0 min. (Rats): 37.57±0.06
body temperature of the rats, t = 90 min. (Rats): 36.51±0.05
body temperature of the rats, t = 180 min. (Rats): 36.40±0.06
body temperature of the rats, t = 270 min. (Rats): 36.45±0.07

CN(C)CCCC(=O)OC(Nc1ccccn1)=C1C(=O)c2sc(Cl)cc2S(=O)(=O)N1C.Cl [F, 8-chloro-(4-N,N-dimethylaminobutyryloxy-pyridine-2-ylamino-methylidene)-3-methy 1-2,2-dioxo-2λ^6'7-dithia-3-azabicyclo[4,3,0]nona-8,10-dien-5-one.HCl]
No. of Writhings (mice [3]): 17.5
Rate of Inhibition (%) (mice [3]): 50%
body temperature of the rats, t = 0 min. (Rats): 37.53±0.05
body temperature of the rats, t = 90 min. (Rats): 36.57±0.05
body temperature of the rats, t = 180 min. (Rats): 36.52±0.07
body temperature of the rats, t = 270 min. (Rats): 36.51±0.06

4- N,N-dimethylaminobutyryloxy - 2-methyl-N-[5-Methyl-3-isoxolyl-2H-1,2-benzothiazine-3-carboxamide 1,1-dioxide] .HCl [G]
No. of Writhings (mice [3]): 15.8
Rate of Inhibition (%) (mice [3]): 55%
LD50 orally in mice (mice [4]): 570 mg/kg
peak plasma levels (in vivo): ~0.5 mg/mL
time until peak plasma levels were reached after application of the donor systems (in vivo): ~50 min
body temperature of the rats, t = 0 min. (Rats): 37.52±0.06
body temperature of the rats, t = 90 min. (Rats): 36.62±0.07
body temperature of the rats, t = 180 min. (Rats): 36.53±0.06
body temperature of the rats, t = 270 min. (Rats): 36.60±0.05

CN(C)CCCC(=O)OC1=C(C(=O)Nc2nccs2)N(C)S(=O)(=O)c2ccccc21 [C, N-(2-thiazoyl)-4-N,N-dimethylaminobutyryloxy-2-methyl-2H,1,2-benzothiazine-3-carbo xamide 1,1-dioxide.HCl]
No. of Writhings (mice [3]): 15.7
Rate of Inhibition (%) (mice [3]): 55%
solubility in water (Solubility in water; listed as N-(2-thiazolyl)-4-N,N-dimethylaminobutyryloxy-2-methyl-2H,1,2-benzothiazine-3-ca): 250 mg/mL
solubility (Solubility in water): > 300 mg/mL
Cmax (in vivo): ~500 µg/mL
body temperature of the rats, t = 0 min. (Rats): 37.50±0.07
body temperature of the rats, t = 90 min. (Rats): 36.61±0.04
body temperature of the rats, t = 180 min. (Rats): 36.50±0.07
body temperature of the rats, t = 270 min. (Rats): 36.60±0.05

CN1C(C(=O)Nc2ccccn2)=C(O)c2ccccc2S1(=O)=O [Piroxicam, reference compound]
LD50 [1, 5]: 360 mg/kg
Cmax (in vivo): ~5 µg/mL

CN(C)CCCC(=O)OC1=C(C(=O)Nc2ccccn2)N(C)S(=O)(=O)c2cc(Cl)sc21
solubility (Solubility in water): > 300 mg/mL
LD50 ([1]; po): 580 mg/kg
Cmax (in vivo): ~500 µg/mL
Tmax (in vivo): ~50 min

CN(C)CCCC(=O)OC(Nc1ccccn1)=C1C(=O)c2sc(Cl)cc2S(=O)(=O)N1C
solubility (Solubility in water): > 300 mg/mL
LD50 ([1]; po): 610 mg/kg
Cmax (in vivo): ~500 µg/mL
Tmax (in vivo): ~50 min

Cc1cnc(NC(=O)C2=C(OC(=O)CCCN(C)C)c3ccccc3S(=O)(=O)N2C)s1.Cl
time until peak plasma levels were reached after application of the donor systems (in vivo): ~50 min

CN(C)CCCC(=O)OC1=C(C(=O)Nc2ccccn2)N(C)S(=O)(=O)c2cc(Cl)sc21 [Compound D, 6-chloro-4-N,N-dimethylaminobutyryloxy-2-methyl-N-2-pyridinyl-2H-thieno[2,3-e]-1 ,2-thiazine-3-carboxamide 1,1-dioxide.HCl]
No. of Writhings (mice [3]): 16.5
Rate of Inhibition (%) (mice [3]): 53%
solubility in water (Solubility in water): 250 mg/mL
body temperature of the rats, t = 0 min. (Rats): 37.55±0.05
body temperature of the rats, t = 90 min. (Rats): 36.66±0.06
body temperature of the rats, t = 180 min. (Rats): 36.60±0.06
body temperature of the rats, t = 270 min. (Rats): 36.61±0.07

CN(C)CCCC(=O)OC1=C(C(=O)Nc2nccs2)N(C)S(=O)(=O)c2ccccc21
LD50 ([1]; po): 670 mg/kg
Tmax (in vivo): ~50 min

CN(C)CCCC(=O)OC1=C(C(=O)Nc2ccccn2)N(C)S(=O)(=O)c2ccccc21
solubility (Solubility in water): > 300 mg/mL
LD50 ([1]; po): 550 mg/kg
Cmax (in vivo): ~500 µg/mL
Tmax (in vivo): ~50 min

Cc1cnc(NC(=O)C2=C(OC(=O)CCCN(C)C)c3ccccc3S(=O)(=O)N2C)s1 [H, 4-N,N-dimethylaminobutyryloxy-2-methyl-N-(5-methyl-2-thiazolyl)-2H-1,2-benzothiazine-3-carboxamide-1,1-dioxide.HCl]
No. of Writhings (mice [3]): 18.2
Rate of Inhibition (%) (mice [3]): 48%
LD50 [1, 5]: 590 mg/kg
Cmax (in vivo): ~500 µg/mL
body temperature of the rats, t = 0 min. (Rats): 37.57±0.07
body temperature of the rats, t = 90 min. (Rats): 36.53±0.08
body temperature of the rats, t = 180 min. (Rats): 36.52±0.08
body temperature of the rats, t = 270 min. (Rats): 36.50±0.07

CN(C)CCCC(=O)OC1=C(C(=O)Nc2ccccn2)N(C)S(=O)(=O)c2ccsc21 [E, 4-N,N-dimethylaminobutyryloxy-2-methyl-N-2-pyridinyl-2H-thieno[2,3-e]-1,2-thiazine-3-carboxamide 1,1-dioxide.HCl]
No. of Writhings (mice [3]): 16.9
Rate of Inhibition (%) (mice [3]): 53%
solubility in water (Solubility in water): 250 mg/mL
body temperature of the rats, t = 0 min. (Rats): 37.54±0.06
body temperature of the rats, t = 90 min. (Rats): 36.61±0.06
body temperature of the rats, t = 180 min. (Rats): 36.58±0.08
body temperature of the rats, t = 270 min. (Rats): 36.55±0.05

CN1C(C(=O)Nc2nccs2)=C(O)c2ccccc2S1(=O)=O [sudoxiam, reference compound]
peak plasma levels (in vivo): ~0.005 mg/mL
